Here are results for one compound from patent US5863716A, “Treatment of plasmodium” (The Leland Stanford Junior University Board of Trustees, priority 1997, dated 1999).

Data set [1] deals with sphingomyelin synthase. Description: Inhibition of plasmodial sphingomyelin biosynthesis in intact infected erythrocytes (C6-NBD-ceramide to C6-NBD-sphingomyelin, TLC). Type of data set: cell-based, Plasmodium falciparum. The procedure: (§1) 1×10^8 infected cells 24 h after invasion were washed serum-free in RPMI 1640 and preincubated for thirty min at 37° C. in 1 ml of RPMI 1640 containing 0-5 μM or 0-500 μM of PPMP. (C6-NBD-ceramide (N-[7-(4-nitrobenzo-2-oxa-1,3-diazide)]-6-aminocaproyl-D-erythro-sphingosine) was added to each sample at a final concentration of 5 μM, the samples further incubated for 30 min at 37° C. and cellular lipids extracted. C6-NBD-sphingomyelin was resolved by TLC and quantitated by fluorescence spectrophotometry as described previously. Bligh, E. G. and Dyer, W. Y. (1959) A rapid method for total lipid extraction and purification., Can. J. Biochem. Physiol. 37: 911-917. Haldar, K., Uyetake, L., Ahori, N., Elmendorf, H. G. and Lu, W-1. (1991) The accumulation and metabolism of a fluorescent ceramide derivative in Plasmodium falciparum--infected erythrocytes., Mo. Biochem. Parasitol. 49: 143-156. Elmendorf, H. G. and Haldar, K. (1994) Plasmodium falciparum exports the Golgi marker sphingomyelin synthase into a tubovesicular network in the cytoplasm of mature erythrocytes., J. Cell Biol. 124: 449-462. Each value obtained represented the mean of triplicate determinations from five experiments. The arrow bars indicate the standard deviations. The results are depicted in FIG. 1.
(§2) P. falciparum strain FCB was used for all experiments and cultured in vitro in according to a modification of the method of Trager and Jensen left off. Trager, W. and Jensen, J. B. (1976) Human malaria in continuous culture., Science (Wash. D.C.) 193: 673-675 Haldar, K., Ferguson, M. A. J. and Cross, G. A. M. (1985) Acylation of a Plasmodium falciparum merozoite surface antigen via sn-1, 2-diacyl glycerol. J. Biol. Chem. 260; 4969-4974. The culture medium contained RPMI 1640 supplemented with 25 Mm hepes, Ph 7.4/11 […] glucose/92 μM hypoxanthine/0.18% sodium bicarbonate/25 μM gentamicin and 10% AB^+ human sera. The parasites were grown in A^+ erythrocytes at 2.5-5% hematocrit. Parasite cultures were synchronized by separation of the early and late stages on a Percoll gradient. The subsequent reincubation of these stages in culture were used to obtain cells 12-24 h in the life cycle. Inhibition of sphingomyelin biosynthetic activity using 5 μM of the various compounds was carried out as described in Example 1. 5 μM of the various compounds were added to 0-12 h rings in the culture medium and cells were examined by Giemsa staining after 24 h.

Data set [2] relates to sphingomyelin synthase. As to the kind of experiment: Inhibition of sphingomyelin biosynthesis in hypotonically lysed infected erythrocytes and fractions. Type of data set: biochemical, Plasmodium falciparum. The procedure:
as §1
Cells were washed serum-free in PBS and intact cells were incubated in PBS. Cells were lysed in 10 volumes of hypotonic buffer. Pellets and supernatants were separated by centrifugation at 10^4 ×G for 10 min at 4° C. Inhibition of sphingomyelin biosynthetic activity was carried out as described in Example 1. Glutamate dehydrogenase, a parasite cytosolic activity, was assayed using 10 μM alpha-ketoglutarate and 0.1 μM NADPH for 1 h at 37° C. by measuring the absorption at 340 nm in a spectrophotometer. The following table indicates the results

Another data set relates to P. falciparum strain FCB. Description: Inhibition of intraerythrocytic growth in culture, Giemsa staining after 24 h. Type of data set: cell-based, Plasmodium falciparum. The note with it: Plasmodium falciparum; 5 μM added to 0-12 h rings; Giemsa staining after 24 h; read-out: [%] inhibition of growth.
Text: as §2

The test system of the next data set is protein synthesis. As to the kind of experiment: Effect on protein synthesis. Format: cell-based.
Data set [3] deals with P. falciparum schizonts and merozoites. Description: Schizont maturation and merozoite invasion in the presence of drug. Format: cell-based, Plasmodium falciparum. The following applies: 5 μM. The procedure:
Schizont-stage parasites isolated over Percoll were allowed to invade in the presence of RPMI 1640 containing 10% human serum or in the presence of RPMI 1640 containing 10% human serum and 5 μM PPMP. 1×10^8 infected erythrocytes of the appropriate stage were incubated in 1 ml of RPMI 1640 supplemented with 2mg/ml defatted BSA and 20 μM C5 -DMB-ceramide. Cells were washed and fixed as described in Example 5. Sequential micrographs were taken on a custom made laser confocal microscope at 400 nm intervals along the Z axis. Raw data were processed as described previously.
Furthermore, the released daughter merozoites enter red cells to form new rings in the continued presence of the drug. This supports the conclusion that the parasite sphingomyelin synthase is essential only to ring and trophozoite-infected red cells in the first 30 to 36 h of intraerythrocytic development.
To determine whether the parasite specific sphingomyelin synthase activity is required for the development of the TVM, ring-infected erythrocytes inhibited in the enzyme from the onset of intra- erythrocytic development were employed. […] Optical sections obtained by staining with C5 DMB-ceramide were observed. A tubular structure was seen extending from the body of the parasite apparently connected to a larger vesicle in the red cell. In rings formed in the presence of PPMP, the intraerythrocytic structures are seen as discrete domains, separated from each other in all three sections. […] Thus, specific inhibition of the parasite's sphingomyelin biosynthetic activity appears to alter the interconnected "tubovesicular morphology" of the TVM into isolated intraerythrocytic compartments or "vesicles" in ring stage parasites.

Another data set deals with P. chabaudi. As to the kind of experiment: Single cycle of expansion in culture, mouse malaria. Type of data set: cell-based. The source says: (§3) The human malaria parasite P. falciparum can be grown in monkeys but not in rodents. However, since primates are expensive, rodents are used as a animal first screen. P. yoelii and P. chabaudi are commonly used strains of mouse malaria.

The test system of a further data set is P. yoelii. The data set is described as above. Format: cell-based.
Text: as §3

A further data set is described as follows: Toxicity in mice. The note with it: mouse, in vivo; over 16 days; preliminary studies; read-out: dose with no significant toxicity. The procedure: Preparation of test compounds, toxicity and pharmacokinetics in mice: PPMP and its derivatives are made up as a stock solution in ethanol, diluted into sterile saline, warmed up to 37° C. and delivered once or several times a day, either intraperitoneally (i.p.) or intravenously (i.v.). The animals are monitored on a daily basis for signs of toxicities which (from mild to extreme) include abnormal grooming behavior, loss or thinning of hair, enlargement of spleen and loss of activity. 0 to 30 micrograms PPMP/per gm of mouse body weight is administered. Effective anti-parasite concentrations of PPMP are predicted to be at ~2 micrograms of PPMP/gm of mouse body weight. Based on preliminary studies, 8-10 micrograms of PPMP per gram of (mouse) body weight have no significant toxicity over 16 days. Compounds and levels found to be non toxic over 30 days will be further tested for their effects on infections of P. yoelii and P. chabaudi.

For `CCCCCCCCCCCCCCCC(=O)N[C@H](CN1CCOCC1)[C@H](O)c1ccccc1` (relative stereo) [PPMP, dl-threo-1-phenyl-2-palmitoylamino-3-morpholino-1-propanol], in the data set on sphingomyelin synthase [1] (0.05-0.5 μM PPMP), the “effect on sphingomyelin synthase activity” value was “initial, rapid decrease in the sphingomyelin synthase activity”. The “concentration at which the second pool of enzyme is quantitatively inhibited” value in the data set with sphingomyelin synthase [1] (second pool) was in the range of 100 to 500 µM. Besides, in the data set with sphingomyelin synthase [1] (sensitive pool), the “concentration at which the sensitive pool of sphingomyelin synthase is completely inhibited” value lay within 1 to 5 µM. The “inhibition of sphingomyelin biosynthesis at 5 μM PPMP [%]” value in the data set on sphingomyelin synthase [2] (hypotonic lysates) is 33%; in the data set with sphingomyelin synthase [2] (pellet of lysate (10^4 x G)), 30%; with sphingomyelin synthase [2] (supernatant of lysate (10^4 x G)), 3%. The inhibition (usually how much of the control response was suppressed) at 5 µM with P. falciparum strain FCB came to 100%. The “inhibition of protein synthesis” value in the data set on protein synthesis is “not inhibitory”. Moreover, the “effect on schizont maturation and merozoite invasion into erythrocytes” value in data set [3] is reported as “not to block either schizont maturation or merozoite invasion into erythrocytes”. Also, in data set [3], the “fate of schizonts greater than 40 h in the cycle” value is “mature and rupture”. Besides, the “development of rings formed in drug after washing free of the drug” value in data set [3] (then washout) is “developed normally in culture”. The “effect on parasite in a single cycle of expansion in culture” value with P. chabaudi and in the data set on P. yoelii was “inhibited” each time. In addition, the NOAEL at 384 h in “Toxicity in mice” was 8 to 10 mg/kg.
